According to patent publication US5219879A, “Heterocyclic steroid compounds” (Du Pont Merck Pharmaceutical Company, priority 1991, dated 1993):

Legend:
[1] = test system: 3-Hydroxy-3-Methylglutaryl Coenzyme A Reductase (HMGR); assay: 3-Hydroxy-3-Methylglutaryl Coenzyme A Reductase (HMGR) Suppression Assay; type: cell-based, Chinese Hamster (CHO cells); conditions: CHO cells, 6 hr. at 37°; read-out: IC50 (amount of compound required to suppress HMGR activity by 50% relative to controls)
Experimental: The ability of the compounds of Formula I to suppress the activity of HMGR, the rate limiting enzyme of cholesterol biosynthesis, was tested as follows.
Chinese Hamster Ovary (CHO) cells were divided twice weekly and were maintained in McCoy's 5A medium supplemented with 1% carbosil delipidated Fetal Bovine System (FBS) (obtained from Gibco Laboratories, Chagrin Falls, Ohio). Cells were harvested during the logarithmic phase of growth and cell cultures were prepared by adding […] cells to each well in a 24 well cluster dish (obtained from Costar, Data Packaging Corp., Cambridge, Mass.) employing 1 ml of the above medium per each well. […] Control cells were treated in an identical fashion to those which received test compound, except they were incubated with the BSA and ethanol suspension only.
Specifically, the medium in each well was aspirated and the cells rinsed with a 50 mM solution of phosphate buffered saline (PBS). One ml of 30 mg/ml of digitonin in CSK buffer (prepared using 10 mM Pipes [piperazine-N,N'-bis (2-ethansulfonic) acid], 100 mM KCl, 2.5 mM MgCl2, 300 mM sucrose, 1 mM EGTA, pH 6.8) was added to each well and incubated for 10 min. at 22° to permeabilize the cells. The buffer was carefully aspirated and the wells were rinsed twice each time with 1 ml of PBS. HMGR activity was measured directly by adding 75 ml of PIB buffer (50 mM potassium phosphate, 1 mM Na2 EDTA, 10 mM dithiothreitol, pH 7.4) to each well and incubating the cells for 30 minutes at 37° as described above. […] The assay mixture was incubated for 30 min. at 37° and terminated by the addition of 70 ml of [^3 H]-mevalonicacid (35,000 DPM/assay), 0.15 mg/ml in 3N HCl.
The reaction was left to lactonize for an additional 30 min. at 37° or overnight at room temperature.
Reaction products were separated by thin layer chromatography on silica gel G (obtained from Analtech, Newark, Del.) developed in an unsaturated environment with acetone:benzene (3:2, v:v). The band corresponding to mevalonolactone was identified by exposure to iodine vapor and was scraped into counting vials. The extent of conversion of starting substrate, HMG-CoA, to mevalonic acid was determined by liquid scintillation counting in Biofluor (obtained from New England Nuclear, Boston, Mass.). Corrections for recovery and blank values were made for each sample. Protein determinations were made by Bio-Rad (Bio-Rad, Richmond, Calif.) dye binding assay according to the manufacturer's instruction using bovine serum albumin as standard. Cellular protein was solubilized from culture dishes by the addition of 20 μl of 16N KOH and assayed directly for protein amount. Suppression values are expressed as the amount of compound required to suppress HMGR activity by 50% relative to that of the controls.

[2] = Lowering Blood Cholesterol Levels in Hamsters; type: in vivo, Male Golden Syrian hamsters; conditions: 0.2% (w/w) in feed, 7 days; means ± SEM; N = 10; pair-fed control 133.0 ± 4.0 (N = 20)
Experimental: Male Golden Syrian hamsters (50-60 grams) were obtained from Charles River, Inc. (Wilmington, Mass.).
Animals were housed in individual suspension cages and were maintained on a light cycle consisting of 12 hours of light followed by 12 hours of dark. Animals were allowed free access to water and feed (Agway ground chow, RMH 3200, Agway, Syracuse, N.Y.) containing 1% (w/w) corn oil) for a minimum of 4 weeks.
Following this stabilization period a sample of blood was collected by orbital sinus bleeding under light ether anesthesia into heparinized capillary tubes. Plasma was separated by centrifugation (600×g for 10 minutes) and plasma cholesterols were determined by an autoanalyzer (Centrifichem 600, Baker Instruments, Allentown, Pa.). Based upon measured plasma cholesterol values, the animals were randomized into two groups such that the mean plasma cholesterol values were identical for both groups.
Animals in the two groups were then placed on one of two diets: (1) Diet A, consisting of ground chow plus 1% (w/w) corn oil, as described above; or (2) Diet B, consisting of Diet A plus 0.2% (w/w) of a test compound. Animals on Diet B, the treated animals, were allowed free access to feed and water, while animals on Diet A were pair-matched with Diet B animals and served as pair-fed controls. […] Total plasma cholesterol levels were determined as described above. […]

[3] = test system: cholesterol biosynthesis pathway; assay: Assay of 14C-Acetate Incorporation into the Biosynthesis of Cholesterol (HepG2 cells); type: cell-based; conditions: Homo sapiens, 22 hours with test compound, then 14C-acetate for additional 2 hours, read-out: IC50, inhibition of the incorporation of 14C-acetate into the cholesterol biosynthesis pathway
Experimental: The HepG2 cells (a human hepatoma cell line) used in this example were obtained from the American Type Culture Collection (ATCC, Rockville, Md.). They were maintained in Dulbecco's Modified Eagles Medium and Ham's F12 Medium (1:1) supplemented with 10% heat inactivated Fetal Bovine serum, […] Herpes, 1 mM sodium pyruvate, 1×Non-essential Amino Acids (Gibco) and 2 mM L-glutamine.
The cells were harvested by washing cultures with 10 ml Hank's Balanced Salt Solution (2×) and incubating with 0.125% Trypsin in Versene (0.02% EDTA) for approximately one minute. After the cells are visibly rounded and loosened from the flask, 9 ml of the above medium is added. The cells are transferred to a […] culture dish and syringed up and down through a 20 gauge needle to break up aggregated clumps of cells. Cell cultures are plated at 0.1×10^6 /ml and 0.075×10^6 /ml in two 24 well plates, respectively, aliquoting 1 ml cells/well. The cells are allowed to attach for 24 hours (48 hours for the lower density plate) before washing 2× with HBSS and refed with 1 ml of the above medium with 1% Cabosil delipidated serum instead of Fetal Bovine Serum. The cells are treated with the test compounds after 24 hours of exposure to the delipidated serum media.
Chemicals are routinely prepared as a 10 mM solution in 100% ethanol or dimethyl sulfoxide (DMSO). All test compounds are added at 50 μM, 25 μM, 10 μM, 1 μM at a final concentration of 0.45% solvent, 0.25% Bovine Serum Albumin (BSA) suspension per well. The solvent BSA is sonicated for 10 seconds to ensure maximum solubilization before addition to the cells. Control wells receive solvent/BSA at the same concentrations as the drug treated cultures. […]
The eluted sterols are dried under nitrogen gas and resuspended in 150 μL ethanol. […] The samples are counted on the dual label ^3 H:^14 C program on the Beckman scintillation counter Model LS 7800.
The incorporation of both radiolabeled precursors into sterols is compared between the treated and non-treated (control) cultures and expressed as "% control" for each precursor. […]

Botrytis cinerea [4] = assay: Example K: cucumber grey mold on cucumber seedlings; type: in vivo; conditions: 200 ppm, 100 = 100% disease control
Experimental: (§1) The test compounds were dissolved in acetone in an amount equal to 6% of the final volume and then suspended at a concentration of 200 ppm in purified water containing 250 ppm of the surfactant TREM 014 (polyhydric alcohol esters). This suspension was sprayed to the point of run-off on cucumber seedlings. The following day plants were inoculated with a spore suspension of Botrytis cinerea, the causal agent of cucumber grey mold, and incubated in a saturated humidity chamber at 20° C. for 4 days when disease ratings were made. […] A dashed entry indicates the specified test was not performed.

Venturia inaequalis = assay: Example A: apple scab on apple seedlings; type: in vivo; conditions: 200 ppm, sprayed the day before inoculation, 100 = 100% disease control
Experimental: as §1, with “apple” for “cucumber”, “Venturia inaequalis,” for “Botrytis cinerea,”, “casual” for “causal”, “apple scab,” for “cucumber grey mold,”, “24 hours and then in a growth chamber at 22° C. for 11 days,” for “4 days”

peanut seedlings = assay: Example B: plant disease control on peanut seedlings; type: in vivo; conditions: 200 ppm, 100 = 100% disease control
Experimental: The test compounds were dissolved in acetone in an amount equal to 6% of the final volume and then suspended at a concentration of 200 ppm in purified water containing 250 ppm of the surfactant TREM […] (polyhydric alcohol esters). This suspension was sprayed to the point of run-off on peanut seedlings. The following day plants were incubated in a saturated humidity chamber at 22° C. for 24 hours, then in a high humidity chamber at 27° C. for 7 days, and then in a growth chamber at 29° C. for 7 days, when disease ratings were made.
In this table, a rating of 100 indicated 100% disease control, and a rating of 0 indicates no disease control relative to untreated plants that were inoculated and incubated as described in each Example. A dashed entry indicates the specified test was not performed.

[5] = test system: Ersiphe graminis f. sp. tritici; assay: Example D: wheat powdery mildew on wheat seedlings; type: in vivo; conditions: 200 ppm, 100 = 100% disease control
Experimental: The test compounds were dissolved in acetone in an amount equal to 6% of the final volume and then suspended at a concentration of 200 ppm in purified water containing 250 ppm of the surfactant TREM 014 (polyhydric alcohol esters). This suspension was sprayed to the point of run-off on wheat seedlings. […] A dashed entry indicates the specified test was not performed.

Pyricularia oryzae = type: in vivo; conditions: rice seedlings, 200 ppm; 100 = 100% disease control
Botyrtis cinerea = assay: Example C: bean grey mold on broad bean seedlings; type: in vivo; conditions: 200 ppm, 100 = 100% disease control
Experimental: as §1, with “TREM […]” for “TREM 014”, “on broad bean” for “on cucumber”, “of Botyrtis” for “of Botrytis”, “of bean” for “of cucumber”, “for 24 hours” for “for 4 days”

Rhizoctonia solani = assay: Example F: rice sheath blight on rice seedlings; type: in vivo; conditions: 220 ppm, 0 = no disease control, 100 = 100% disease control
Experimental: The test compounds were dissolved in acetone in an amount equal to 6% of the final volume and then suspended at a concentration of 220 ppm in purified water containing 250 ppm of the surfactant TREM 014 (polyhydric alcohol esters). This suspension was sprayed to the point of run-off on rice seedlings. The following day plants were inoculated with a mycelial suspension of Rhizoctonia solani, the causal agent of rice sheath blight, and incubated in a saturated humidity chamber at 27° C. for 48 hours and then in a growth chamber at 29° C. for 4 days, when disease ratings were made. […] A dashed entry indicates the specified test was not performed.

Botrytis cinerea [6] = assay: Example J: grape grey mold on grape seedlings; type: in vivo; conditions: 200 ppm, 100 = 100% disease control
Experimental: as §1, with “grape” for “cucumber”, “96 hours” for “4 days”

Puccinia recondita = assay: Example G: wheat leaf rust on wheat seedlings; type: in vivo; conditions: 220 ppm, 100 = 100% disease control
Experimental: The test compounds were dissolved in acetone in an amount equal to 6% of the final volume and then suspended at a concentration of 220 ppm in purified water containing 250 ppm of the surfactant TREM 014 (polyhydric alcohol esters). This suspension was sprayed to the point of run-off on wheat seedlings. The following day plants were inoculated with a spore suspension of Puccinia recondita, the causal agent of wheat leaf rust, and incubated in a saturated humidity chamber at 20° C. for 48 hours and then in a growth chamber at 20° C. for 8 days, when disease ratings were made. […] A dashed entry indicates the specified test was not performed.

CC(C)CCC[C@@H](C)[C@H]1CO[C@@]2(C)C3=C(CC[C@]12C)[C@@]1(C)CC[C@H](O)C(C)(C)[C@@H]1CC3 [Example 1, 15-Oxa-dihydrolanosterol]
IC50 [1]: 180 nM | Plasma Cholesterol, Treated [2]: 120. ± 2.0 mg/dl

C=C[C@@]12OC[C@H]([C@H](C)/C=C/[C@H](C)C(C)C)[C@@]1(C)CCC1=C2CC[C@H]2C[C@@H](O)CC[C@]12C [Example 29 (Compound 80), (22E)-15-Oxa-14α-vinyl-ergosta-8,22-dien-3β-ol]
IC50 [3]: > 50000 nM

C=C[C@@]12OC[C@H]([C@H](C)/C=C/[C@H](C)C(C)C)[C@@]1(C)CCC1=C2CC[C@H]2C(C)(C)[C@@H](O)CC[C@]12C [Example 28 (Compound 78), (22E)-4,4-Dimethyl-15-oxa-14α-vinylergosta-8,22-dien-3β-ol]
IC50 [3]: 50 nM

CC(C)CCC[C@@H](C)[C@H]1CN=C2C3=C(CC[C@@]21C)[C@@]1(C)CC[C@H](O)C(C)(C)[C@@H]1CC3 [Example 1817]
disease control rating, Example K (Botrytis cinerea [4]): 99% | IC50 [1]: 500 nM | disease control rating, Example A (Venturia inaequalis): 90% | disease control rating, Example B (peanut seedlings): 25% | disease control rating, Example D [5]: 92% | disease control rating, Example E (Pyricularia oryzae): 1% | disease control rating, Example C (Botyrtis cinerea): 97% | disease control rating, Example F (Rhizoctonia solani): 0% | disease control rating, Example J (Botrytis cinerea [6]): 97% | disease control rating, Example G (Puccinia recondita): 62%

CC[C@@]12OC[C@H]([C@H](C)CC[C@H](C)C(C)C)[C@@]1(C)CCC1=C2CC[C@H]2C[C@@H](O)CC[C@]12C [Example 30 (Compound 81), 14α-Ethyl-15-oxa-ergost-8-en-3β-ol]
IC50 [3]: 600 nM
